Results from publication PMC4859512, “Polyamino-Isoprenic Derivatives Block Intrinsic Resistance of P. aeruginosa to Doxycycline and Chloramphenicol In Vitro” (PLoS ONE, 2016).
“And” between values parts separate entries of the source, which are not always exact repeats. Identical values can stand only once.

What was measured:
[1] = test system: P. aeruginosa PA0-7H (Mex EF overproducer); experiment: Antibiotic susceptibility testing (broth micro-dilution MIC), strain PA0-7H; assay type: cell-based, Pseudomonas aeruginosa; conditions: Pseudomonas aeruginosa, read-out: Minimal Inhibitory Concentration
Description: (§1) Experiments were performed on the BAC-SCREEN platform of the UMR-MD1, with a Freedom EVO 150 liquid handling system (Tecan, Lyon, France).
(§2) We concluded that compound 3 was the best compound and suitable for a more detailed study. The same experiment was performed using chloramphenicol (4 mg/L) in combination with 3 (10 μM final concentration). Amongst the 20 clinical isolates, the growth of 15 (75%) was impaired, while 5 (25%) were resistant (data not shown). These experiments were performed to study the effect of our compounds on the natural resistance of P. aeruginosa. In addition, we were wondering if compound 3 could also increase susceptibility to other antibiotic families including ß-Lactams, fluoroquinolones and aminoglycosides, that are representative of the main classes of anti-pseudomonal agents. Experiments were performed with the ß-lactams ceftazidime and ticarcillin and ciprofloxacin and amikacin. […] . […] To better characterize compound 3, we first searched for the minimum concentration of compound that allowed killing of bacteria by doxycycline, and PAßN was used as the reference molecule.

CHO-K1 cells = experiment: cells; assay type: cell-based, Chinese Hamster; conditions: for IC50: Cricetulus griseus, CHO-K1, WST1, 24 h, mean +/- SD, 2 independent experiments
Description: (§3) CHO-K1 cells (ATCC-LGC Standards Sarl (Molsheim, France) and human fibroblasts (Clinisciences, Paris, France) were maintained in McCoy’s 5A and DMEM media, respectively, supplemented with 10% bovine calf serum, 2 mM glutamine, and 100 U/mL/10 μg/mL penicillin/streptomycin. They were incubated at 37°C in a humidified atmosphere containing 5% CO2. The cell lines were seeded in 96-well plates and incubated overnight. The cytotoxic effects of compounds were assessed by the colorimetric WST-1 cell proliferation assay as previously described. Briefly, a range of compound concentrations from 30 μM to 1200 μM was added to triplicate cultures, and cells were incubated at 37°C for 24 h. At the end of the incubation period, cultures were washed three times with phosphate buffer saline (PBS) and incubated in fresh culture medium containing 10% WST-1 for an additional 30 min. Cell viability was evaluated by measuring the WST-1 absorbance at 450 nm in a microplate spectrophotometer MRX1 II (Dynex technologies, Chantilly, VA, USA). The Inhibitory Concentration 50% (IC50) was chosen to evaluate the cytotoxicity of compounds. IC50 was defined as the concentration of a compound that induced a 50% decrease in viable cells. Doxorubicin was used as a positive control.

[2] = test system: twenty clinical isolates of P. aeruginosa; experiment: Combined antibiotic / polyamino-isoprenic derivative on MH agar plates, clinical isolates; assay type: cell-based, Pseudomonas aeruginosa; conditions: doxycycline 2 mg/L + compound 10 μM; 20 clinical isolates
Description: MH agar plates were prepared, containing 2 mg/L doxycycline and 2 mg/L doxycycline in combination with compounds at a concentration of 10 μM. Bacteria, 5 μL of a suspension of each clinical isolate adjusted to 5 x 10^5 colony-forming units per ml were spotted on each plate and growth was monitored after a 18 h period of incubation at 37°C.
PA01 is a well-studied reference strain of P. aeruginosa, however to extend our study we considered strains recently isolated from hospitalized patients. Thus, we decided to test this combination of doxycycline (2mg/L) with polyamino-isoprenic compounds (10 μM) on twenty clinical isolates recently isolated from the HIA-Laveran (see M&M section and S1 Table).

[3] = test system: P. aeruginosa CMZ091 (Mex XY overproducer); experiment: Antibiotic susceptibility testing (broth micro-dilution MIC), strain CMZ091; assay type: cell-based, Pseudomonas aeruginosa; conditions: Pseudomonas aeruginosa, read-out: Minimal Inhibitory Concentration
Description: as §1, §2

[4] = test system: P. aeruginosa PA01 reference strain; experiment: High-content screening in the presence of doxycycline; conditions: compound 10 μM, sub-inhibitory doxycycline
Description: The screening was carried out in 96-well microtiter plates using MHBII, in a final volume of 200 μL. […] The bacterial inoculum of 5×10^5 CFU/mL was prepared from an overnight culture. In addition to the polyamino-isoprenic compounds, each plate contained PAßN, CCCP, CTAB, polymyxin-B and benzalkonium chloride as control molecules. Plates were incubated at 37°C under aerobic conditions for 18 hours. Plates were read at 600 nm on an Infinite M200 Pro plate reader (Tecan).
A series of 60 compounds, which were described [18], were tested at a concentration of 10 μM in combination with a sub-inhibitory concentration of doxycycline against the reference strain of P. aeruginosa PA01. In parallel, we evaluated the intrinsic antimicrobial activity of these compounds alone to allow the selection of only doxycycline adjuvants.

human fibroblasts = experiment: WST-1 cytotoxicity test, fibroblasts; assay type: cell-based
Description: as §3

[5] = test system: P. aeruginosa FB1 (Mex B deleted); experiment: Antibiotic susceptibility testing (broth micro-dilution MIC), strain FB1; assay type: cell-based; conditions: Pseudomonas aeruginosa, read-out: Minimal Inhibitory Concentration
Description: as §1

[6] = test system: P. aeruginosa PT629 (Mex AB overproducer); experiment: Antibiotic susceptibility testing (broth micro-dilution MIC), strain PT629; assay type: cell-based, Pseudomonas aeruginosa; conditions: Pseudomonas aeruginosa, read-out: Minimal Inhibitory Concentration
Description: as §1, §2

P. aeruginosa PA01 (wt) = experiment: Antibiotic susceptibility testing (broth micro-dilution MIC), strain PA01; assay type: cell-based, Pseudomonas aeruginosa; conditions: Pseudomonas aeruginosa, read-out: Minimal Inhibitory Concentration
Description: as §1
(§4) The same experiment was performed using chloramphenicol (4 mg/L) in combination with 3 (10 μM final concentration). […] These experiments were performed to study the effect of our compounds on the natural resistance of P. aeruginosa. […] Experiments were performed with the ß-lactams ceftazidime and ticarcillin and ciprofloxacin and amikacin.

[7] = test system: P. aeruginosa PA01 ERY^R (Mex CD overproducer); experiment: microbe, parasite or virus in culture; assay type: cell-based, Pseudomonas aeruginosa; conditions: Pseudomonas aeruginosa, read-out: Minimal Inhibitory Concentration
Description: as §1, §4

Enterobacteriaceae = experiment: Same type of combination assay against Enterobacteriaceae (data not shown); assay type: cell-based
[8] = test system: outer membrane of P. aeruginosa PA01; experiment: Outer membrane permeation assay (nitrocefin hydrolysis); conditions: compound at 125μM, relative to 250 μM polymyxin-B
Description: An overnight culture of PA01 was diluted 100-fold into 10 ml MHII broth containing 0.01 μg/ml of imipenem to induce a higher level of β-lactamases. […] Absorbance at 490 nm was monitored by spectrophotometry using an Infinite M200 microplate reader (Tecan) over 60 min. Experiments were performed in triplicate.

[9] = test system: efflux of 1,2'-dinaphthylamine in strain PA01; experiment: Real-time efflux assay (1,2'-dinaphthylamine, glucose-triggered); assay type: cell-based, Pseudomonas aeruginosa
Description: The experiments were performed as previously described with slight modifications. For each strain, 20 mL of MHII was inoculated with a single colony from a fresh plate and grown at 37°C to the stationary phase. […] They were then loaded over night with the dye 1,2’-dinaphthylamine (TCI-Europe SA, Zwijndrecht, Belgium) at a final concentration of 32 μM, in the presence of 5 μM CCCP. […] In a 96-well Greiner black microplate (Greiner, Courtaboeuf, France), a gradient of inhibitor (when used) was prepared in PPB, and bacteria were added (100 μL per well). The fluorescence of the cell suspension, was monitored each 22 sec during 1200 sec on an Infinite M200 microplate reader (Tecan; excitation wavelength 370 nm and emission wavelength 420 nm). In order to trigger the transport, glucose (50 mM final concentration) is added at 200 sec. The maximum efficacy of the efflux is the difference between the value obtained without and with glucose addition after 1200 sec. For each compound, the efficiency of efflux inhibition is calculated as the difference between the maximum efficacy of transport and the residual transport obtained at various concentrations of the compound.

Compound | MIC [1] | cytotoxicity value compared with the positive control doxorubicin (CHO-K1 cells; Chinese hamster, 24 h) | IC50 (CHO-K1 cells) | isolates with doxycycline susceptibility restored [2] | MIC [3] | synergy with doxycycline in screening [4] | IC50 (human fibroblasts; Homo sapiens, Fibroblast, WST1, 24 h, mean +/- SD, 2 independent experiments) | cytotoxicity value compared with the positive control doxorubicin (human fibroblasts; human fibroblasts) | MIC [5] | MIC [6] | MIC (P. aeruginosa PA01 (wt)) | MIC [7] | rank of potency against Enterobacteriaceae (Enterobacteriaceae) | outer membrane permeation activity [8] | efflux inhibition ([9]; compound at 31.25μM) | efflux inhibition ([9]; compound at 125μM)
CC(C)=CCCC(C)=CCNCCCNCCCCNCCCN [Compound 1] | 85 µg/mL and 250 µM | 20 times | 808 ± 68.1 µM | 27% | 85 µg/mL and 250 µM | did not show any significant synergy | 138 ± 18.6 µM | 10 times | 85 µg/mL and 250 µM | > 85 µg/mL and > 250 µM | > 85 µg/mL and > 250 µM | > 85 µg/mL and > 250 µM |  |  |  | 
CC(C)=CCCC(C)=CCNCCCN(CCCN)CCCN [Compound 2] | > 81 µg/mL and > 250 µM |  | 236 ± 28.9 µM | 6% | > 81 µg/mL and > 250 µM |  |  |  | > 81 µg/mL and > 250 µM | > 81 µg/mL and > 250 µM | > 81 µg/mL and > 250 µM | > 81 µg/mL and > 250 µM | the most potent |  |  | 
polymyxin-B nonapeptide [PMBN, reference compound] |  |  |  |  |  |  |  |  |  |  |  |  |  | 10% | quite inefficient | 30%
